The record followed here is paper PMC6382696, “Drug Repurposing: The Anthelmintics Niclosamide and Nitazoxanide Are Potent TMEM16A Antagonists That Fully Bronchodilate Airways” (Frontiers in Pharmacology, 2019).

Where two headings read alike, the source gives them in different places.

For one test, the system named is mouse tracheal rings. Nature of the test: Wire myograph bronchodilation of carbachol pre-contracted mouse tracheal rings. As to conditions: for EC50: Mus musculus; for time to steady-state relaxation of mouse tracheal rings: EC75 carbachol; for onset of action: bronchodilating mouse airways, summary. The protocol:
The trachea from C57 BL/6 mice was dissected and collected in PBS with Mg^2+ and Ca^2+. After further trimming, two 2 mm sections (rings) per trachea were then placed in DMEM media containing PSG/HEPES/AA/NaPyr for 1 h and used immediately or maintained overnight at 37°C in a humidified incubator with 5% CO2. Rings were then mounted into chambers of DMT wire myograph containing L-shaped mounting pins with 2–3 mN of force applied to secure rings on the pins and the rings were allowed to equilibrate for 25–30 min in a physiological saline buffer (PSS, 130 mM NaCl, 4.7 mM KCl, 1.2 mM MgS04, 14.9 mM NaHCO3, 1.2 mM KH2PO4, 0.026 mM EDTA, 1.6 mM CaCl2, 5.5 mM Dextrose). Throughout the experiment, rings were maintained at physiological temperature and gas conditions by heating buffer reservoir and chamber to 37°C and bubbling a 95% O2, 5% CO2 gas mixture into chamber.
After equilibration, a standard tissue “Wake-Up” procedure was applied by altering tension and then treatment with elevated potassium as follows: 3 mN tension was applied for 5–10 min, then another 2–3 mN tension to total of 5.5 mN and then to 7–8 mN for another 5 min; the tissue pre-tension was then set to 5 mN and allowed to equilibrate for 5–10 min followed by the removal of the PSS buffer and addition of KPSS (60 mM KCl, 74.7 mM NaCl in PSS solution), with force changes monitored until they reached a plateau. The tissue was then washed four times with PSS over 5 min and the KPSS treatment and washes repeated; the tissue was then allowed to sit in PSS for 10 min and the tension was set to 5 mN.
The tissue was then washed three times and then three times more with PSS for 5 min until tension returned to baseline.
Only tissue that passed the qualification tests above advanced to studies on test article compounds. […] For standard ascending dose-response studies on TMEM16A antagonists, an EC75 or EC95 concentration of CCh was used to pre-contract tracheal rings.

Another test concerns the target T1, TMEM16A (acd) (Homo sapiens, UniProt Q5XXA6).
T1 sequence (Q5XXA6 1-986): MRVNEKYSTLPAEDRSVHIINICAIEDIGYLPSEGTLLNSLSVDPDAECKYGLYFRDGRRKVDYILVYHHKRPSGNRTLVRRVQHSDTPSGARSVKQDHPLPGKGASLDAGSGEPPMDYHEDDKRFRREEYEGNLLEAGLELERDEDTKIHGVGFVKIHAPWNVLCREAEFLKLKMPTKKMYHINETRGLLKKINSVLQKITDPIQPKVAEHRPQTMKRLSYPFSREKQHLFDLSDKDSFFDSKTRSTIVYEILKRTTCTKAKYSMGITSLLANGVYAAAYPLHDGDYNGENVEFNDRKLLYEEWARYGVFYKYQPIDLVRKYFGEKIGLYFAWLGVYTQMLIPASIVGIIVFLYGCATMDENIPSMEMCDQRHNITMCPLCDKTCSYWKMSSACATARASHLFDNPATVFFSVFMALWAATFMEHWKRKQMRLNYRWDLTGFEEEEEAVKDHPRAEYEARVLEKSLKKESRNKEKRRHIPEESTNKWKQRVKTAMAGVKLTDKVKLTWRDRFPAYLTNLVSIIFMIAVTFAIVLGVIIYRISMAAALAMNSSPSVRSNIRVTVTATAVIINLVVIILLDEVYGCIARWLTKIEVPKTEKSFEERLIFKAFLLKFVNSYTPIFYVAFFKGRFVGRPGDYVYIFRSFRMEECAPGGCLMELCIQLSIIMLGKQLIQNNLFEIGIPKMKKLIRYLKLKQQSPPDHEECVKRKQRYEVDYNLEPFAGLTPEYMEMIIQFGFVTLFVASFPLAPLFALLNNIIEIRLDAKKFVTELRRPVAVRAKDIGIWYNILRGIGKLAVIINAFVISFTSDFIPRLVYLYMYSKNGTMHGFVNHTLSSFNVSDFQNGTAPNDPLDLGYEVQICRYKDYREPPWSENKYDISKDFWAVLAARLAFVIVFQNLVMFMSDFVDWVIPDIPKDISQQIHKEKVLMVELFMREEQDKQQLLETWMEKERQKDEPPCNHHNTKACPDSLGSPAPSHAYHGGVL
Nature of the test: QPatch whole-cell electrophysiology, HEK293 TMEM16A (acd). Format: cell-based. To be noted: for effect on inward current at −100 mV, whole cell patch clamp: 170 nM free calcium, Vhold 0 mV; for IC50 / calcium-activated chloride current inhibited: QPatch; for IC50: outward current at +100 mV, 170 nM free intracellular calcium, ~60 s per concentration, read-out: TMEM16A Chloride Current (IC50); for time to achieve steady state block: single concentration; for calcium-activated chloride current inhibited: maximum antagonist activity. The text has this: HEK293 cells stably expressing the TMEM16A (acd) variant were purchased from SB Drug Discovery. The HEK293 TMEM16A (abc) stable cell line was from ChanTest and COLO-205 cells were purchased from ATCC. The same standard buffers and recording conditions listed below were used for QPatch studies on all three cell lines.
Recording Solutions: were made weekly as below and stored at room temperature until used. It is recommended not to add ATP to internal solution until immediately before using on the QPatch. The external buffer (in mM) was 140 NaCl, 4 KCl, 2 CaCl2, 1 MgCl2, 10 HEPES, 10 Glucose, pH7.4, while the internal buffer (in mM) was 110 CsCl, 20 TEA-Cl, 5.374 CaCl2, 1.75 MgCl2, 10 EGTA, 10 HEPES, 4 Na2ATP, pH 7.2.
Once established in whole-cell configuration, cells were clamped to a holding potential (Vhold) of 0 mV on 48 well single hole patch plate. A standardized IV protocol was used to elicit ionic current through the TMEM16A chloride channel at 20 s intervals. Steady-state voltage pulses were from −100 mV to +100 mV in +20 mV steps for a duration of 500 ms. After each pulse the voltage was returned to −100 mV for 50 ms to obtain tail currents, and then returned to the holding potential of 0 mV until the beginning of the next sweep. […] This ensures a minimum of 60 s per concentration incubation before measuring current block. Currents were acquired at 10 kHz and filtered at 2 kHz, leak subtraction and Rseries were disabled. A 1 MΩ minimum resistance was set because cells are held in an open channel state and therefore resistance is low.
A cumulative concentration response was measured where each cell is exposed to five concentrations of test article with a dilution factor of 1:5 (e.g., 0.048, 0.24, 1.2, 6, and 30 μM). Cells were recorded for ∼60 s per solution/compound addition. Initially, external solution is applied twice to allow currents to stabilize. Then vehicle (from the saline reservoir) is added twice to monitor any effect 0.3% DMSO might have on currents. This leads directly into the concentration runs by applying Concentration 1 (single addition) for 1 min. Concentration 2 is then applied for the subsequent minute, etc. Recovery/washout was monitored for a final minute with a final external solution addition.
[…] […] Each cell’s current magnitude was then normalized to itself at the initial 0.3% vehicle control period prior to compound application. This step is to account for differences in current size for each cell. Normalized responses to test article were plotted against their concentrations to reveal a concentration-inhibition plot.
A Normalized Group Hill fit was then performed on the plotted results to yield a pooled IC50 value, reconstructed from a minimum of two cells/concentration. The baseline response as well as the full response were constrained to 1 and 0, respectively.
(In general: The patch-clamp technique gives a direct electrical read-out from membranes.)

The mark [1] stands for this setting: carbachol pre-contracted, values marked † (footnote not given), read-out: Bronchodilation of Mouse Tracheal Rings (EC50).
Where [2] appears, read: carbachol pre-contracted, values marked § (footnote not given), read-out: Bronchodilation of Mouse Tracheal Rings (EC50).
Where [3] appears, read: pre-contracted with EC75 carbachol, average, read-out: EC50 relaxation of mouse tracheal rings.

As a reminder, the EC50 is the concentration that produces a half-maximal response. In general, IC50 refers to the concentration that gives 50% inhibition. `COc1cc(Nc2ccc([N+](=O)[O-])cc2C(=O)O)cc2ccccc12` [MONNA]: the EC50 in the test with mouse tracheal rings (setting [1]) amounted to 3.02 µM. On TMEM16A (acd), the “effect on inward current at −100 mV, whole cell patch clamp” value (from here on “effect on inward current at −100 mV”) was “inhibited” and the IC50 was found to be 13.6 ± 9.76 µM.
Take `O=C(Nc1ncc([N+](=O)[O-])s1)c1cccs1` [NTTP]: the EC50 in the test on mouse tracheal rings (setting [2]) came out at 7.61 µM. Also, the IC50 on TMEM16A (acd) came to 4.69 µM.
For the molecule `CCc1c(C)nc(SCC(=O)Nc2nc(-c3ccc(OC)cc3)cs2)[nH]c1=O` [T16Ainh-A01], in the test on mouse tracheal rings (setting [1]), the EC50 is more than 50 µM. On TMEM16A (acd), the IC50 is more than 30 µM.
As to `O=C(Nc1ccc([N+](=O)[O-])cc1Cl)c1cc(Cl)ccc1O` [Niclosamide], the “time to steady-state relaxation of mouse tracheal rings” value (“time to steady-state relaxation” below) with mouse tracheal rings (1 μM) is 17 to 35 min. The results for the concentration giving a half-maximal response (EC50) in the test on mouse tracheal rings (setting [1]) and in the test on mouse tracheal rings (setting [3]) were 0.379 ± 0.082 µM and 0.365 µM, respectively. In the test with mouse tracheal rings, this molecule registered an onset of action of 17 to 60 min. On TMEM16A (acd), the “effect on inward current at −100 mV” value was “paradoxical increase”. The “time to achieve steady state block” value on TMEM16A (acd) (1.11 μM) was “about 10 min”; at TMEM16A (acd) (3.3 μM) it was “approximately 4 min”. In addition, the IC50 at TMEM16A (acd) came to 2.37 ± 2.11 µM. Also, the “calcium-activated chloride current inhibited” value on TMEM16A (acd) is “Over 80%”.
As for `N#Cc1c(C(F)(F)F)cc(O)n2c1nc1ccccc12` [1PBC], the EC50 in the test on mouse tracheal rings (setting [1]) was determined as 1.77 µM. At TMEM16A (acd), the “effect on inward current at −100 mV” value is “paradoxical increase”; the 50% inhibitory concentration (IC50) came to 2.81 ± 1.25 µM; the “calcium-activated chloride current inhibited” value was “Over 80%”.
As for `CCc1oc2ccccc2c1C(=O)c1cc(Br)c(O)c(Br)c1` [Benzbromarone], the “time to steady-state relaxation” value with mouse tracheal rings (1 μM) is 40 to 60 min. Moreover, the EC50 with mouse tracheal rings (setting [1]) was 1.28 ± 0.211 µM. The EC50 in the test with mouse tracheal rings (pre-contracted with EC75 carbachol, read-out: EC50 relaxation of mouse tracheal rings) is 1.28 µM. The same molecule yielded an onset of action in the test with mouse tracheal rings of 17 to 60 min. On TMEM16A (acd), the “effect on inward current at −100 mV” value was “inhibited” and the IC50 stood at 4.09 ± 2.08 µM.
Turning to `CC(C)(C)C1CCc2c(sc(NC(=O)c3ccco3)c2C(=O)O)C1` (centres unmarked) [CaCCinh-A01], the EC50 in the test on mouse tracheal rings (setting [1]) stood at 13.5 µM.
Take `O=C(Nc1ccc([N+](=O)[O-])cc1)c1cc(Cl)c2ccccc2c1O` [Cpd 3]: in the test with mouse tracheal rings (setting [2]), the EC50 came out at 0.606 ± 0.003 µM. Further, on TMEM16A (acd), the “effect on inward current at −100 mV” value is “no significant effect” and the IC50 turned out to be 0.61 ± 0.62 µM.
Regarding `Oc1ccc(Cl)cc1Cc1cc(Cl)ccc1O` [Dichlorophen], the EC50 in the test with mouse tracheal rings (setting [1]) was found to be 2.01 µM. The IC50 at TMEM16A (acd) is 4.66 ± 2.2 µM.
The like results for `O=C(Nc1ncc([N+](=O)[O-])s1)c1ccccc1O` [Tizoxanide] were, in that order, 3.9 µM and 4.42 ± 2.4 µM.
Turning to `O=C(Nc1ccc(Cl)cc1)c1cc(Cl)ccc1O` [Cpd 5], the half-maximal effective concentration (EC50) in the test with mouse tracheal rings (setting [1]) was 1.12 µM. Further, the IC50 at TMEM16A (acd) was 2.26 ± 0.65 µM.
On to `O=C(O)c1cccnc1Nc1cccc(C(F)(F)F)c1` [Niflumic Acid], for which the EC50 in the test on mouse tracheal rings (setting [1]) came to 51.2 µM. For the same molecule, on TMEM16A (acd), the “effect on inward current at −100 mV” value is reported as “stimulating” and the IC50 came out at 8.54 ± 6.75 µM.
Turning to `COc1cc([N+](=O)[O-])ccc1NC(=O)c1cc(Cl)c2ccccc2c1O` [Cpd 4], in the test on mouse tracheal rings (316 nM), the “time to steady-state relaxation” value is 25 to 45 min. The EC50 with mouse tracheal rings (setting [1]) was 0.467 ± 0.167 µM. Also, the EC50 in the test with mouse tracheal rings (setting [3]) is approximately 0.332 µM. In addition, the onset of action in the test with mouse tracheal rings lay within 17 to 60 min. Besides, at TMEM16A (acd), the “effect on inward current at −100 mV” value is “no significant effect” and the IC50 is 0.62 ± 0.37 µM.
Turning to `O=C(Nc1ccc([N+](=O)[O-])cc1)c1cc(Cl)ccc1O` [Cpd 2], the EC50 in the test with mouse tracheal rings (setting [2]) is 0.585 µM; with mouse tracheal rings (setting [1]), 0.483 µM.
